Key:
Type in all cases: in vivo
[1] = system: Alopecurus myosuroides; assay: Pre-emergence herbicidal action, ALOMY; set-up: key: % activity: 100 = plants have died, 0 = like control plants; conditions: comparative experiment
Description: 1. Pre-Emergence Herbicidal Action Against Harmful Plants Seeds of monocotyledonous and dicotyledonous weed plants and crop plants are laid out in sandy loam soil in wood-fiber pots and covered with soil. The compounds of the invention, formulated in the form of wettable powders (WP) or as emulsion concentrates (EC), are then applied to the surface of the covering soil in the form of an aqueous suspension or emulsion at a water application rate equating to 600 to 800 l/ha, with addition of 0.2% wetting agent. After the treatment, the pots are placed in a greenhouse and kept under good growth conditions for the trial plants. The damage to the test plants is scored visually after a test period of 3 weeks by comparison with untreated controls (herbicidal activity in percent (%): 100% activity=the plants have died, 0% activity=like control plants). […] The tables below illustrate, in an exemplary manner, the […] herbicidal action of the compounds according to the invention, the herbicidal activity being stated in percent. [table] In the experiments that follow, herbicidal action of numerous inventive compounds and the known compounds that are structurally closest from D1 (WO 2012/028579 A1) and D2 (WO 2018/202535 A1) were compared under the above-specified conditions by the pre-emergence and post-emergence method. The example numbers given in the tables relate to the compounds disclosed in the respective documents. In addition to the compounds disclosed in D1 and D2, the following compounds V-1 to V-14 that are encompassed by D1 or D2 but are not compounds specified therein were used in the comparative experiments: • V-1: 2-(methylsulfanyl)-3-(methylsulfinyl)-N-(1-methyl-1H-tetrazol-5-yl)-4-(trifluoromethyl)benzamide • V-2: 2-(methylsulfanyl)-3-(methylsulfonyl)-N-(1-methyl-1H-tetrazol-5-yl)-4-(trifluoromethyl)benzamide • V-3: 2,3-bis(ethylsulfanyl)-N-(1-methyl-1H-tetrazol-5-yl)-4-(trifluoromethyl)benzamide • V-4: 2-chloro-3-(ethylsulfanyl)-N-(1-methyl-1H-tetrazol-5-yl)-4-(trifluoromethyl)benzamide • V-5: 2-chloro-4-iodo-3-(methylsulfanyl)-N-(1-methyl-1H-tetrazol-5-yl)benzamide • V-6: 2-chloro-4-iodo-3-(methylsulfinyl)-N-(1-methyl-1H-tetrazol-5-yl)benzamide • V-7: 2-chloro-4-iodo-3-(methylsulfonyl)-N-(1-methyl-1H-tetrazol-5-yl)benzamide • V-8: 2-bromo-3-(methylsulfanyl)-N-(1-methyl-1H-tetrazol-5-yl)-4-(trifluoromethyl)benzamide • V-9: 2-bromo-3-(methylsulfinyl)-N-(1-methyl-1H-tetrazol-5-yl)-4-(trifluoromethyl)benzamide • V-10: 2-bromo-3-(methylsulfonyl)-N-(1-methyl-1H-tetrazol-5-yl)-4-(trifluoromethyl)benzamide • V-11: 2-bromo-3-(ethylsulfanyl)-N-(1-methyl-1H-tetrazol-5-yl)-4-(trifluoromethyl)benzamide • V-12: 2-bromo-3-(ethylsulfinyl)-N-(1-methyl-1H-tetrazol-5-yl)-4-(trifluoromethyl)benzamide • V-13: 2-bromo-3-(ethylsulfonyl)-N-(1-methyl-1-1H-tetrazol-5-yl)-4-(trifluoromethyl)benzamide • V-14: 2-cyclopropyl-3-(ethylsulfanyl)-N-(1-methyl-1H-tetrazol-5-yl)-4-(trifluoromethyl)benzamide Herbicidal Pre-Emergence Action: […]

[2] = system: Cyperus esculentus; assay: Pre-emergence herbicidal action, CYPES; set-up: key: % activity: 100 = plants have died, 0 = like control plants; conditions: comparative experiment
How it was run: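 Pre-emergence, sandy loam soil; WP/EC formulation applied to covering soil surface, 600–800 l/ha water + 0.2% wetter; greenhouse, 3 wk; visual % damage vs untreated (0–100%).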

[3] = system: Avena fatua; assay: Pre-emergence herbicidal action, AVEFA; conditions: comparative experiment, 20 g of a.i./ha
Description: 1. Pre-Emergence Herbicidal Action Against Harmful Plants Seeds of monocotyledonous and dicotyledonous weed plants and crop plants are laid out in sandy loam soil in wood-fiber pots and covered with soil. The compounds of the invention, formulated in the form of wettable powders (WP) or as emulsion concentrates (EC), are then applied to the surface of the covering soil in the form of an aqueous suspension or emulsion at a water application rate equating to 600 to 800 l/ha, with addition of 0.2% wetting agent. After the treatment, the pots are placed in a greenhouse and kept under good growth conditions for the trial plants. The damage to the test plants is scored visually after a test period of 3 weeks by comparison with untreated controls (herbicidal activity in percent (%): 100% activity=the plants have died, 0% activity=like control plants). […] The tables below illustrate, in an exemplary manner, the post-emergence herbicidal action of the compounds according to the invention, the herbicidal activity being stated in percent. [table] In the experiments that follow, herbicidal action of numerous inventive compounds and the known compounds that are structurally closest from D1 (WO 2012/028579 A1) and D2 (WO 2018/202535 A1) were compared under the above-specified conditions by the pre-emergence and post-emergence method. […]

| SMILES | Herbicidal action against ALOMY ([1]; 80 g of a.i./ha) | Herbicidal action against CYPES ([2]; 20 g of a.i./ha) | other results |
| --- | --- | --- | --- |
| Cn1nnnc1NC(=O)c1ccc(I)c(C[S+](C)[O-])c1Cl (racemic) [Example 1-363] | – | – | Herbicidal action against ALOMY ([1]; 20 g of a.i./ha): 50 |
| CC[S+]([O-])Cc1c(C(F)(F)F)ccc(C(=O)Nc2nnnn2C)c1Br (racemic) [Example 1-384] | 100 | – | Herbicidal action against CYPES ([2]; 80 g of a.i./ha): 100 |
| CSc1c(C(=O)Nc2nnnn2C)ccc(C(F)(F)F)c1C[S+](C)[O-] (stereo not drawn) [Example 1-162] | – | 70 | – |
| CCSCc1c(C(F)(F)F)ccc(C(=O)Nc2nnnn2C)c1Cl [Example 1-299] | – | 90 | Herbicidal action against ALOMY ([1]; 20 g of a.i./ha): 80 |
| CSCc1c(C(F)F)ccc(C(=O)Nc2nnnn2C)c1Cl [Example 1-320] | – | 80 | Herbicidal action against AVEFA [3]: 70 |
| CSCc1c(I)ccc(C(=O)Nc2nnnn2C)c1Cl [Example 1-362] | – | 80 | – |
| CCSCc1c(C(F)(F)F)ccc(C(=O)Nc2nnnn2C)c1Br [Example 1-383] | – | – | Herbicidal action against CYPES ([2]; 80 g of a.i./ha): 100 |
| CCS(=O)(=O)Cc1c(C(F)(F)F)ccc(C(=O)Nc2nnnn2C)c1Br [Example 1-385] | 100 | – | – |
| CCS(=O)(=O)c1c(C(F)(F)F)ccc(C(=O)Nc2nnnn2C)c1Br [Example V-13, 2-bromo-3-(ethylsulfonyl)-N-(1-methyl-1-1H-tetrazol-5-yl)-4-(trifluoromethyl)benzamide, reference compound] | 0 | – | – |
